pIC50: −log10 of the molar value.
biological target: MDM2 (Homo sapiens, UniProt Q00987); experiment: HTRF assay of inhibition of the p53-MDM2 interaction; type: binding; details: GST-MDM2 / biotinylated p53 peptide, bsa 0.02%
Procedure: The ability of the compounds to inhibit the interaction between p53 and MDM2 proteins was measured by an HTRF (homogeneous time-resolved fluorescence) assay in which recombinant GST-tagged MDM2 binds to a peptide that resembles the MDM2-interacting region of p53 (Lane et al.). Binding of GST-MDM2 protein and p53-peptide (biotinylated on its N-terminal end) is registered by the FRET (fluorescence resonance energy transfer) between Europium (Eu)-labeled anti-GST antibody and streptavidin-conjugated Allophycocyanin (APC).
[…] Add 10 uL diluted compounds (1:5 dilution in reaction buffer) to each well, mix by shaking. Add 20 uL biotinylated p53 peptide (180 nM working solution) in reaction buffer to each well and mix on shaker. Incubate at 37° C. for 1 h. Add 20 uL streptavidin-APC and Eu-anti-GST antibody mixture (6 nM Eu-anti-GST and 60 nM streptavidin-APC working solution) in TBS buffer with 0.2% BSA, shake at room temperature for 30 minutes and read using a TRF-capable plate reader at 665 and 615 nm (Victor 5, Perkin ElmerWallac). If not specified, the reagents were purchased from Sigma Chemical Co.

Sequence of MDM2 (Q00987 whole entry, species assumed): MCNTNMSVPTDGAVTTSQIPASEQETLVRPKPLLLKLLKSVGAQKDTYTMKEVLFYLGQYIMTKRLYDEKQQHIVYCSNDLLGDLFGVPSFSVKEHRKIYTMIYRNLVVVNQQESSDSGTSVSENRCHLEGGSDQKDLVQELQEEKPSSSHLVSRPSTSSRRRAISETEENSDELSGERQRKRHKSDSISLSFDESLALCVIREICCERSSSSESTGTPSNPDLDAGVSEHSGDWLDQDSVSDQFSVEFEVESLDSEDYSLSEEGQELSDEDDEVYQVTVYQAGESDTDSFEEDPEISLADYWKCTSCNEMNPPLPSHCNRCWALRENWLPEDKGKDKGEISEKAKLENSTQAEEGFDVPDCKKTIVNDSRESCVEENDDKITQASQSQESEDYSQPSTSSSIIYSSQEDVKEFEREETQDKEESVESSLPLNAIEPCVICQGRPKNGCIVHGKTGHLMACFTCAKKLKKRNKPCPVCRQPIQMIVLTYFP

Point of comparison: `CC(C)(C)C[C@@H]1N[C@@H](C(=O)NCC[C@H](O)CO)[C@H](c2cccc(Cl)c2F)[C@@]1(C#N)c1ncc(Cl)cc1F` (mixture of isomers) [Example 25, rac-(2R,3S,4S,5S)-3-(3-chloro-2-fluoro-phenyl)-4-(5-chloro-3-fluoro-pyridin-2-yl)-4-cyano-5-(2,2-dimethyl-propyl)-pyrrolidine-2-carboxylic acid ((S)-3,4-dihydroxy-butyl)-amide], pIC50 5.91. Against it:
- CC(C)(C)C[C@@H]1N[C@@H](C(=O)NCC[C@H](O)CO)[C@H](c2cccc(Cl)c2)[C@@]1(C#N)c1cc(Br)cs1 (mixture of isomers) [Example 7, rac-(2R,3R,4R,5S)-4-(4-bromo-thiophen-2-yl)-3-(3-chloro-phenyl)-4-cyano-5-(2,2-dimethyl-propyl)-pyrrolidine-2-carboxylic acid ((S)-3,4-dihydroxy-butyl)-amide] — 0.68 log units lower, 5.23
- CC(C)(C)C[C@@H]1N[C@@H](C(=O)NCC[C@H](O)CO)[C@H](c2cccc(Cl)c2)[C@@]1(C#N)c1cccnc1 (mixture of isomers) [Example 39, rac-(2R,3R,4R,5S)-3-(3-chloro-phenyl)-4-cyano-5-(2,2-dimethyl-propyl)-4-pyridin-3-yl-pyrrolidine-2-carboxylic acid ((S)-3,4-dihydroxy-butyl)-amide] — 0.20 log units lower, 5.71
- CC(C)(C)C[C@@H]1N[C@@H](C(=O)NCC[C@H](O)CO)[C@H](c2cccc(Cl)c2)[C@@]1(C#N)c1ccc(Cl)nc1 (mixture of isomers) [Example 44, rac-(2R,3R,4R,5S)-3-(3-chloro-phenyl)-4-(6-chloro-pyridin-3-yl)-4-cyano-5-(2,2-dimethyl-propyl)-pyrrolidine-2-carboxylic acid ((S)-3,4-dihydroxy-butyl)-amide] — 1.30 log units higher, 7.21
- COC(=O)c1ccc(NC(=O)[C@@H]2N[C@@H](CC(C)(C)C)[C@](C#N)(c3ccc(Br)cn3)[C@H]2c2cccc(Cl)c2F)cc1 (racemic) [Example 34, rac-4-{[(2R,3S,4S,5S)-4-(5-bromo-pyridin-2-yl)-3-(3-chloro-2-fluoro-phenyl)-4-cyano-5-(2,2-dimethyl-propyl)-pyrrolidine-2-carbonyl]-amino}-benzoic acid methyl ester] — 0.79 log units higher, 6.70

Reference: patent US20110118283A1, “Substituted Pyrrolidine-2-Carboxamides” (priority 2009, published 2011)
